{
  "source": "patent US8906960B2",
  "about": "“Synergistic effect of tocotrienols and curcumin” (Malaysian Palm Oil Board, priority 2010, dated 2014)",
  "key": {"[1]": {"test_system": "MCF-7 human breast cancer cells", "assay": "Cell growth experiment: inhibition of proliferation of MCF-7 cells (viable cell count after 72 hours)", "type": "cell-based", "method": "Stock solution of TRF and curcumin was prepared in dimethyl sulfoxide (DMSO) at a concentration of 10 mg/mL. For cell growth experiments (as described below), treatments of TRF and curcumin were diluted in phenol red-free RPMI 1640 medium supplemented with 5% dextran-charcoal-treated […]) to final concentrations of 1-100 μM in test medium. MCF-7 cells were suspended from T75 flask by treatment of trypsin to an equal volume of phenol red free RPMI 1640 medium supplemented with 5% dextran-charcoal treated […]), 1% penicillin-streptomycin, 1% L-glutamine and counted on a haemocytometer. Cells were added to the required volume of phenol red free RPMI medium supplemented with 5% dextran-charcoal treated […]), 1% penicillin-streptomycin, 1% L-glutamine. […] MCF-7 cells were seeded in each well of 24-well tissue culture dishes. […] Cell proliferation was measured by using an automated particle counter, Beckman Coulter Particle Counter. […] The nuclei released were counted in isoton on a Coulter particle counter. […] The IC50 value was calculated as an average of three generated value of each replicates. Comparisons between means of six groups were assessed for significance. […]"}, "[2]": {"test_system": "B16F-10 melanoma lung metastasis", "details": "cited from earlier work"}, "[3]": {"test_system": "PC-3, a prostate cancer cell", "details": "PC-3 prostate cancer cell; cited from earlier work"}, "[4]": {"test_system": "vascular cell adhesion molecule-1 (VCAM-1) expression; THP-1 adhesion to HUVECs", "details": "suppression of VCAM-1 expression and THP-1 adhesion to HUVECs; cited from earlier work"}},
  "note": "pIC50: −log10 of the molar value.",
  "data": [
    {"smiles": "COc1cc(/C=C/C(=O)CC(=O)/C=C/c2ccc(O)c(OC)c2)ccc1O", "note": "[Curcumin]", "values": [
      {"measurement": "pIC50", "setting": "[1]; Homo sapiens, MCF7, MCF-7 cells, 72 hours, 10^-8 M estradiol, test compounds 1-100 μM, combinations with 1 μM of the second ingredient", "value": 4.60},
      {"measurement": "Effect of curcumin on the anti-proliferative effect of tocotrienols", "setting": "[1]; estrogen-positive MCF-7 human breast cancer cells in vitro", "value": "synergistically enhanced the anti-proliferative effect of tocotrienols"},
      {"measurement": "Increase of life span of the animals", "setting": "[2]; mice treated with curcumin", "value": 143.85, "unit": "%"},
      {"measurement": "Reduction of the number of lung tumor nodules", "setting": "[2]; oral administration, 200 nmol/kg body weight, mice", "value": 80, "unit": "%"}
    ]},
    {"smiles": "Cc1c(C)c2c(c(C)c1O)CC[C@@](C)(CCC[C@H](C)CCC[C@H](C)CCCC(C)C)O2", "note": "[α-tocopherol]", "values": [
      {"measurement": "Effect on proliferation of PC-3", "setting": "[3]", "value": "no significant effects"}
    ]},
    {"smiles": "CC(C)=CCC/C(C)=C/CC/C(C)=C/CC[C@]1(C)CCc2c(C)c(O)c(C)c(C)c2O1", "note": "[α-tocotrienol]", "values": [
      {"measurement": "Efficacy relative to α-tocopherol", "setting": "[4]", "value": 10, "unit": "fold"}
    ]},
    {"smiles": "CC(C)=CCC/C(C)=C/CC/C(C)=C/CC[C@]1(C)CCc2cc(O)c(C)c(C)c2O1", "note": "[γ-tocotrienol]", "values": [
      {"measurement": "Effect on proliferation of PC-3", "setting": "[3]", "value": "inhibit the proliferation"}
    ]},
    {"smiles": "CC(C)=CCC/C(C)=C/CC/C(C)=C/CC[C@]1(C)CCc2cc(O)cc(C)c2O1", "note": "[δ-tocotrienol]", "values": [
      {"measurement": "Effect on proliferation of PC-3", "setting": "[3]", "value": "inhibit the proliferation"}
    ]}
  ]
}
